Data from BindingDB's records for doi:10.1021/jm00041a011 (Ohio State University, 1994).
Where “and” joins values, the source holds several entries; their conditions need not be identical. Identical values can stand only once. Counter-ions that a name gives are not always drawn.

Test: Tested for its ability to antagonize epinephrine induced primary wave aggregation in human platelets at alpha-2A-adrenergic receptor sites.

Compared with OC(c1cnc[nH]1)(c1cccc2ccccc12)C(F)(F)F (stereo unspecified) [2,2,2-Trifluoro-1-(1H-imidazol-4-yl)-1-naphthalen-1-yl-ethanol; hydrochloride], OC(c1cnc[nH]1)c1cccc2ccccc12 (stereo unspecified) [(1H-Imidazol-4-yl)-naphthalen-1-yl-methanol; hydrochloride] is lower in IC50: > 300 µM for the first, 61.9 µM for the second.

First: COC(c1cnc[nH]1)c1cccc2ccccc12 (stereo unspecified) [4-(Methoxy-naphthalen-1-yl-methyl)-1H-imidazole; hydrochloride]
Second: c1ccc2c(Cc3cnc[nH]3)cccc2c1 [4-Naphthalen-1-ylmethyl-1H-imidazole; hydrochloride]
The IC50 of the first is 130-fold higher: 380 µM for the first, 3 µM for the second. The second is the more potent here.

Work on O=C(c1cnc[nH]1)c1cccc2ccccc12 [(1H-Imidazol-4-yl)-naphthalen-1-yl-methanone; oxalic acid] yielded an IC50 of 580 µM.

For CC(c1cnc[nH]1)c1cccc2ccccc12 (stereo unspecified) [4-(1-Naphthalen-1-yl-ethyl)-1H-imidazole], the IC50 was 12.3 µM and 9.1 µM.
